According to patent publication US8722727B2, “Antifungal agents” (Seynix, Inc., priority 2008, dated 2014):

Target: T1, glucan synthase (GS) (Candida albicans, UniProt O13428)
T1 construct: Extraction of GS activity from membranes was performed at a protein concentration of 5 mg/mL in extraction buffer; endogenous in cells; host or cells: Candida albicans MY1055 (membrane fraction, detergent extraction, product entrapment)
Experiment: Glucan synthase inhibition (polymerization assay, 96-well)
Format: biochemical
Conditions: glucan synthase prepared from Candida albicans MY1055; 60 min incubation at 22° C.; read-out: Candida Albicans GS IC50 (ng/mL) (converted)
Method: The in vitro evaluation of glucan synthase inhibitory activity of compounds was measured in a polymerization assay in 96-well format. Each well contained 100 μL of ^3H-UDPG at 0.5 mM (6000 to 8000 dpm/nmol), 50 mM HEPES pH 7.5 (Sigma), 10% w/v glycerol (Sigma), 1.5 mg/mL bovine serum albumin (Sigma A 9647. Lot 44H0190), 25 mM KF (Fisher), 1 mM EDTA (Gibco ULTRAPURE), 25 μM GTP-γ-S, enzyme sufficient to give 3 to 6 nmoles incorporation during the 60 min incubation at 22° C., and test compound added from wells in 3-fold serial dilutions in 100% DMSO (1 μL/well). The reaction was stopped by the addition of 100 μL of 20% trichloroacetic acid. Plates were chilled for a minimum of 10 min, and precipitated glucan collected by filtration on GF/C plates (Packard UNIFILTER®-96), washed with 5 cycles of water (about 1 mL/well each cycle) using a Packard FILTERMATE HARVESTER. 40 μL/well scintillation fluid (Packard ULTIMA GOLD TM-XR) was added and the sealed plates counted in a WALLAC BETA counter in top-counting mode at an efficiency of approximately 40%.
Stock solutions were stored at 10 mg/mL in DMSO at −20° C. For each new enzyme preparation, the initial titration performed started at 1 mg/mL, which was prepared by making a 10-fold dilution in DMSO (5 μL to 50 μL). 40 μL of this stock was placed in column 12 of a round-bottomed 96-well microtiter plate. 40 μL DMSO was added to columns 1 to 11 in the same row and ten 3-fold serial dilutions performed, by transferring 20 μL from column 12 to column 11 etc., with 4 mixings before each transfer. No test compound was transferred to from column 2 to column 1. Duplicate aliquots of 1 μL of all 12 dilutions were then transferred to the side walls of a 96-well Bioblock 1.1 mL plate (Fisher brand) to create two rows. Graphs of the primary data were created in PRISM software (the average of two determinations) using PRISM's curve fitting program (sigmoidal dose response non-linear regression). The amount of compound required to inhibit glucan synthase activity by 50% in this assay (IC50-ng/mL) was calculated.
Routine analysis was performed with glucan synthase (GS) prepared from Candida albicans MY1055 by the following procedure: MY1055 was grown in 10 liters YPD medium (10 g yeast extract, 20 g tryptone, 20 g glucose per liter) with vigorous shaking at 30° C., to early stationary phase. Cells were harvested by centrifugation, the pellet was washed and frozen at −70° C. until breakage. Thawed pellets were shaken with an equal volume of breakage buffer (50 mM HEPES pH 7.4, 10% glycerol, 1 mM EDTA, 1 mM PMSF, 1 mM DTT) and 4 times their weight of 0.5 mm acid washed glass beads for 2 hours at 4° C. Extent of breakage was assessed visually at 40× magnification. After low speed centrifugation to remove cell debris, the supernatant was centrifuged at 100,000×g for 60 min. to separate membranes plus ribosomes from cytoplasmic components. Membranes were further washed two additional times with breakage buffer using the same centrifugation conditions and finally suspended in breakage buffer at 25 to 30 mg/mL protein (Biorad) for storage at −70° C. Extraction of GS activity from membranes was performed at a protein concentration of 5 mg/mL in extraction buffer (50 mM NaPO4 pH 7.5, 0.1 M KCl, 0.1M Na citrate, 20% glycerol, 5 μM GTP-γ-S, 1 mM DTT, 1 mM PMSF, 3 μg/mL pepstatin) plus 0.25% W1 by gentle mixing at 4° C. for 60 min, followed by centrifugation at 100,000×g for 60 min. After centrifugation, clear supernatant was removed from a pellet consisting of a hard layer usually with small amounts of gelatinous unextracted membranes above it.
Trapping was initiated immediately by 5-fold dilution in trapping buffer (50 mM HEPES pH 7.5, 10 mM KF, 1 mM EDTA, 2 mg/mL BSA) plus 2.5 mM UDPG and 10 μM GTP-γ-S. After incubation at 25° C. for 60 to 90 minutes, glucan was harvested by low speed centrifugation (3,000×g, 10 min). […]

T1 sequence (O13428 1-1897): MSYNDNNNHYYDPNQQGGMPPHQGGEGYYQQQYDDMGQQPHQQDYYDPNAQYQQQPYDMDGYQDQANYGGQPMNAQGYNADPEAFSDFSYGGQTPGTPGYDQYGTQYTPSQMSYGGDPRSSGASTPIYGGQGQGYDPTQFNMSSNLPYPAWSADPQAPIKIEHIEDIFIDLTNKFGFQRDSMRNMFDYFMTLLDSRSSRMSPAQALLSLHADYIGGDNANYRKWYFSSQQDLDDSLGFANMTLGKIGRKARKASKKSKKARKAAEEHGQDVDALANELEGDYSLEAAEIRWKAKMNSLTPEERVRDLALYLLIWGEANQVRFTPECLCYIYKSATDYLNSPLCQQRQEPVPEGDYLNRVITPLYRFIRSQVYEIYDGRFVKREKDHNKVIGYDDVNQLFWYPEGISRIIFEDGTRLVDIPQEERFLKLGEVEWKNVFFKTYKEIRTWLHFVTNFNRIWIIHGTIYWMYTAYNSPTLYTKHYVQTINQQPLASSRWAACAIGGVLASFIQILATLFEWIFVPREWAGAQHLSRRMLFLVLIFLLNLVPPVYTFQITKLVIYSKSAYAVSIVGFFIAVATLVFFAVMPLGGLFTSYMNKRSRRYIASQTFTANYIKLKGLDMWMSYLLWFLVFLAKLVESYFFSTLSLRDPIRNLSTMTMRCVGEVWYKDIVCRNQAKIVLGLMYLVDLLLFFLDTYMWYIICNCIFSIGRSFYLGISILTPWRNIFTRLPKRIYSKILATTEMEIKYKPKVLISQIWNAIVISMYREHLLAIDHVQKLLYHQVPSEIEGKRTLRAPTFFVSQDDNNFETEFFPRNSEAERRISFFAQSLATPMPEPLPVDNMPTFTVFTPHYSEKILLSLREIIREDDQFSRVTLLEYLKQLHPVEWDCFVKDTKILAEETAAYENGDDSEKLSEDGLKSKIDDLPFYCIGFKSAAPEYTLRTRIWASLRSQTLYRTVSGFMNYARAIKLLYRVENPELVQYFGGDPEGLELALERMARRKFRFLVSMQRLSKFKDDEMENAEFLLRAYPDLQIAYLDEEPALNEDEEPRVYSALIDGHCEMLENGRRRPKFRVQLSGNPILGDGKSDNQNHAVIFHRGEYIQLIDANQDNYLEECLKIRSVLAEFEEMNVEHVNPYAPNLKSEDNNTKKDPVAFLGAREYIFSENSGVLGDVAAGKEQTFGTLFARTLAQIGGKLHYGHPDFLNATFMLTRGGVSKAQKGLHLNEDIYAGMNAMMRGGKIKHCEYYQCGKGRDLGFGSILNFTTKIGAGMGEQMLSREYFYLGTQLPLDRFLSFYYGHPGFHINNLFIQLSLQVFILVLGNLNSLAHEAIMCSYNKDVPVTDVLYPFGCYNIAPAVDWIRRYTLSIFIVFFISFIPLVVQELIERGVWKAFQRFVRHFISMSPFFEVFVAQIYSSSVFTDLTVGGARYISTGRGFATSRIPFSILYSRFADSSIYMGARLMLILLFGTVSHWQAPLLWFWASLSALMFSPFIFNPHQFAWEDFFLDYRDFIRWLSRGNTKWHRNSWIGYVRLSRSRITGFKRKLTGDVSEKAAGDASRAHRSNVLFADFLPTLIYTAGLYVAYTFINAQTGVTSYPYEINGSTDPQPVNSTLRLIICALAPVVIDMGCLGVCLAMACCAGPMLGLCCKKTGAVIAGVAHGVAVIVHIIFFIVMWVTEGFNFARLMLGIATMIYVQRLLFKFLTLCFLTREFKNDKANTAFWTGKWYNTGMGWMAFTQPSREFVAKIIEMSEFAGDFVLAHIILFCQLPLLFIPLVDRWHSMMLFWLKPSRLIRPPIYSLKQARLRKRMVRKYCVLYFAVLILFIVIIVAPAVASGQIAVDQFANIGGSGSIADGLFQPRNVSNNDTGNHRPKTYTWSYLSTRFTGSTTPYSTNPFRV
T1 sequence (O42825 1-195 partner limits assumed): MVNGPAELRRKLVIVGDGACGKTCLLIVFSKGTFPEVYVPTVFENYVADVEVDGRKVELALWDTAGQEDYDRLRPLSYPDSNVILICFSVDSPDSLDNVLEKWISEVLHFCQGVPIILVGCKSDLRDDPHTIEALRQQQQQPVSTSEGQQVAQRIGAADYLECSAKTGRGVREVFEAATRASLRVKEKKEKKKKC

Compound | IC50
CC(C)[C@@H](C)[C@@]1(C)CC[C@]2(C)[C@H]3CC[C@@H]4[C@@]5(COC[C@@]4(C)[C@@H](OCC(C)(C)N)[C@H](n4ncnn4)C5)C3=CC[C@@]2(C)[C@@H]1C(=O)O [Example 1B, (1S,4aR,6aS,7R,8R,10aR,10bR,12aR,14R,15R)-15-(2-amino-2-methylpropoxy)-8-[(1R)-1,2-dimethylpropyl]-14-(2H-tetrazol-2-yl)-1,6,6a,7,8,9,10,10a,10b,11,12,12a-dodecahydro-1,6a,8,10a-tetramethyl-4H-1,4a-propano-2H-phenanthro[1,2-c]pyran-7-carboxylic acid] | 9.81 nM
CC(C)[C@@H](C)[C@@]1(C)CC[C@]2(C)[C@H]3CC[C@@H]4[C@@]5(COC[C@@]4(C)[C@@H](OCC(C)(N)C(C)C)[C@H](n4cnnn4)C5)C3=CC[C@@]2(C)[C@@H]1C(=O)O (stereo partly drawn) [Example 2A, (1S,4aR,6aS,7R,8R,10aR,10bR,12aR,14R,15R)-15-(2-amino-2,3-dimethylbutoxy)-8-[(1R)-1,2-dimethylpropyl]-14-(1H-tetrazol-1-yl)-1,6,6a,7,8,9,10,10a,10b,11,12,12a-dodecahydro-1,6a,8,10a-tetramethyl-4H-1,4a-propano-2H-phenanthro[1,2-c]pyran-7-carboxylic acid] | 82.8 nM
CC(C)[C@@H](C)[C@@]1(C)CC[C@]2(C)[C@H]3CC[C@@H]4[C@@]5(COC[C@@]4(C)[C@@H](OCC(C)(C(C)C)N(C)C)[C@H](n4ncnn4)C5)C3=CC(=O)[C@@]2(C)[C@@H]1C(=O)O (stereo partly drawn) [Example 4B, (1S,4aR,6aS,7R,8R,10aR,10bR,12aR,14R,15R)-15-[2-(dimethylamino)-2,3-dimethylbutoxy]-8-[(1R)-1,2-dimethylpropyl]-14-(2H-tetrazol-2-yl)-1,6,6a,7,8,9,10,10a,10b,11,12,12a-dodecahydro-1,6a,8,10a-tetramethyl-6-oxo-4H-1,4a-propano-2H-phenanthro[1,2-c]pyran-7-carboxylic acid] | 63.1 nM

Continued, values first:

IC50 | Compound
64.6 nM | CC(C)[C@@H](C)[C@@]1(C)CC[C@]2(C)[C@H]3CC[C@@H]4[C@@]5(COC[C@@]4(C)[C@@H](OC[C@](C)(C(C)C)N(C)C)[C@H](n4nnc(N)n4)C5)C3=CC(=O)[C@@]2(C)[C@@H]1C(=O)O (single isomer, unassigned) [Example 15A]
21.4 nM | CC(C)[C@@H](C)[C@@]1(C)CC[C@]2(C)[C@H]3CC[C@@H]4C5(COCC4(C)[C@@H](OCC4CCCN4C)[C@H](n4nnc(N)n4)C5)C3=CC[C@@]2(C)[C@@H]1C(=O)O (stereo in doubt) [Example 46, (1S,4aR,6aS,7R,8R,10aR,10bR,12aR,14R,15R)-14-(5-amino-2H-tetrazol-2-yl)-8-[(1R)-1,2-dimethylpropyl]-15-[(1-methyl-2-pyrrolidinyl)methoxy]-1,6,6a,7,8,9,10,10a,10b,11,12,12a-dodecahydro-1,6a,8,10a-tetramethyl-4H-1,4a-propano-2H-phenanthro[1,2-c]pyran-7-carboxylic acid]
4.79 nM | CC(C)[C@@H](C)[C@@]1(C)CC[C@]2(C)[C@H]3CC[C@@H]4[C@@]5(COC[C@@]4(C)[C@@H](OCC(C)(C)N)[C@H](n4nnc(N)n4)C5)C3=CC[C@@]2(C)[C@@H]1C(=O)O [Example 6, (1S,4aR,6aS,7R,8R,10aR,10bR,12aR,14R,15R)-15-(2-amino-2-methylpropoxy)-14-(5-amino-2H-tetrazol-2-yl)-8-[(1R)-1,2-dimethylpropyl]-1,6,6a,7,8,9,10,10a,10b,11,12,12a-dodecahydro-1,6a,8,10a-tetramethyl-4H-1,4a-propano-2H-phenanthro[1,2-c]pyran-7-carboxylic acid]
